The subject of one assay is HepG2. As to the kind of experiment: Antiproliferative activity against human HepG2 cells after 48 hrs by CCK8 assay. In kind it is functional, cell-based. The settings on record: HepG2, 48 h. A general note: Tetrazolium dyes change colour on reduction, which living cells bring about.
Another assay relates to KB. As to the kind of experiment: Antiproliferative activity against human KB cells after 48 hrs by CCK8 assay. It is filed as functional, cell-based.
Assay [1] in a line: Antiproliferative activity against human HCT8 cells after 48 hrs by CCK8 assay. In kind it is functional, cell-based. The following applies: HCT-8, 48 h.
The nature of assay [2]: Antiproliferative activity against human SGC7901 cells after 48 hrs by CCK8 assay. It is filed as functional, cell-based. The following applies: SGC-7901, 48 h.
For the next assay, the system named is SGC-7901. The assay can be described thus: Ratio of 10-hydroxycamptothecin IC50 to compound IC50 for human SGC7901 cells after 48 hrs by CCK8 assay. It is filed as functional.
For assay [3], the target named is T1, DNA topoisomerase 1 (Homo sapiens) (UniProt P11387).
T1 sequence (whole entry): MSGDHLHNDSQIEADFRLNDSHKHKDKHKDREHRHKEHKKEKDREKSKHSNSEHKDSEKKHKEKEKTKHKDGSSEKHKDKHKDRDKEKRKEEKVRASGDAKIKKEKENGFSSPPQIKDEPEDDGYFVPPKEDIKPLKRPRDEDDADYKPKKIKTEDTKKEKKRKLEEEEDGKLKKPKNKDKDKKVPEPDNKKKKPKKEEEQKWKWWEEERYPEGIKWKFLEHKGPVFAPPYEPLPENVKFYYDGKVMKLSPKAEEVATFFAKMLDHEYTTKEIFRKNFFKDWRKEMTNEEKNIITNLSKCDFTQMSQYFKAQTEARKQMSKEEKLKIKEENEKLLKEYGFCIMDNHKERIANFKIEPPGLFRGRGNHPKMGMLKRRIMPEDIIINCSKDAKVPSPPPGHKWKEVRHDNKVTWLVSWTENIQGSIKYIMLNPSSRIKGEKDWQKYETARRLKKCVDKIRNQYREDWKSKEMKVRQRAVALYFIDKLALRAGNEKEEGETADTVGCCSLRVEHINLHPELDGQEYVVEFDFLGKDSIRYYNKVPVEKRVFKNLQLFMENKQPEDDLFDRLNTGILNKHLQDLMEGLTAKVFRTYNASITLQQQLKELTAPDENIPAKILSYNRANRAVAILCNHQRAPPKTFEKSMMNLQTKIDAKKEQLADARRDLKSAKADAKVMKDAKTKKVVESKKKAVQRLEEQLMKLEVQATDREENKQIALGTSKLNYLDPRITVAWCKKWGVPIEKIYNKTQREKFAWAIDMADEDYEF
As to the kind of experiment: Inhibition of purified Topo 1 (unknown origin)-mediated supercoiled pBR322 DNA cleavage at 12.5 uM after 15 mins by agarose gel electrophoresis.

Structures can show the parent of a compound that is named as a salt. The source made the active and inactive calls. No cut-off for these calls is given here. Bounds are passed on as bounds.

On to `CCCSCc1c(O)ccc2nc3c(cc12)Cn1c-3cc2c(c1=O)COC(=O)[C@]2(O)CC`, for which the IC50 (in general, the concentration that gives 50% inhibition) was 0.734 µM in the assay on HepG2, 2.17 µM with KB, 0.746 µM in assay [1] and 2.82 µM in assay [2].

As for `CC[C@@]1(O)C(=O)OCc2c1cc1n(c2=O)Cc2cc3c4c(ccc3nc2-1)O[C@@H]1OCC[C@H]1C4`, the half-inhibitory concentration (IC50) with HepG2 stood at 0.332 µM; in the assay on KB, 1.71 µM; in assay [1], 0.203 µM; in assay [2], 0.182 µM. The “Ratio IC50” value in the assay with SGC-7901 stood at 4. In addition, the inhibition entry in assay [3] is “inactive”.

As to `CCN(CC)CCSCc1c(O)ccc2nc3c(cc12)Cn1c-3cc2c(c1=O)COC(=O)[C@]2(O)CC`, the half-inhibitory concentration (IC50) with HepG2 is 5.09 µM; with KB, 32.5 µM; in assay [1] it was 21.9 µM; in assay [2] it was 10.4 µM.

Take `CC[C@@]1(O)C(=O)OCc2c1cc1n(c2=O)Cc2cc3c(CN(C)C)c(O)ccc3nc2-1` [TOPOTECAN HYDROCHLORIDE]: the IC50 in the assay on HepG2 worked out at 4.21 µM; in the assay on KB, 2.28 µM; in assay [1], 1.88 µM; in assay [2] it was 2.29 µM.

As to `CC[C@@]1(O)C(=O)OCc2c1cc1n(c2=O)Cc2cc3c4c(ccc3nc2-1)OC(OCC(C)C)CC4` (some centres not stated), the half-maximal inhibitory concentration (IC50) in the assay on HepG2 was determined as 0.387 µM; in the assay on KB, 1.14 µM; in assay [1] it was 0.471 µM; in assay [2], 0.344 µM.

Take `CC[C@@]1(O)C(=O)OCc2c1cc1n(c2=O)Cc2cc3cc(O)ccc3nc2-1` [HYDROXYCAMPTOTHECIN]: the IC50 was 0.499 µM in the assay with HepG2, 0.128 µM in the assay on KB, 0.181 µM in assay [1] and 0.835 µM in assay [2]. In addition, the inhibition entry in assay [3] is “Active”.

As to `CC[C@@]1(O)C(=O)OCc2c1cc1n(c2=O)Cc2cc3c(CSCC(=O)OC)c(O)ccc3nc2-1`, the IC50 with HepG2 was found to be 3.2 µM; with KB, 12.9 µM; in assay [1] it was 3.09 µM; in assay [2] it was 9.02 µM.

Take `CCCCOC1CCc2c(ccc3nc4c(cc23)Cn2c-4cc3c(c2=O)COC(=O)[C@]3(O)CC)O1` (some centres not stated): the concentration for half-maximal inhibition (IC50) in the assay on HepG2 was 0.145 µM; in the assay with KB it was 0.95 µM; in assay [1], 0.317 µM; in assay [2], 0.772 µM. In assay [3], the inhibition result is “inactive”.

Take `CC[C@@]1(O)C(=O)OCc2c1cc1n(c2=O)Cc2cc3c4c(ccc3nc2-1)OC(O)CC4` (some centres not stated): the concentration for half-maximal inhibition (IC50) in the assay on HepG2 is 0.184 µM; in the assay with KB, 0.777 µM; in assay [1], 0.567 µM; in assay [2] it was 0.536 µM. In addition, the inhibition entry in assay [3] is “Active”.

On to `CC[C@@]1(O)C(=O)OCc2c1cc1n(c2=O)Cc2cc3c(CSC(C)C)c(O)ccc3nc2-1`, for which the half-inhibitory concentration (IC50) in the assay with HepG2 worked out at 0.351 µM; in the assay on KB, 0.994 µM; in assay [1], 0.406 µM; in assay [2], 0.993 µM. For the same compound, the inhibition result in assay [3] was “Active”.

For `CCSCc1c(O)ccc2nc3c(cc12)Cn1c-3cc2c(c1=O)COC(=O)[C@]2(O)CC`, the IC50 with HepG2 was found to be 0.595 µM; in the assay with KB, 2.19 µM; in assay [1], 0.282 µM; in assay [2], 0.549 µM.

As to `CC[C@@]1(O)C(=O)OCc2c1cc1n(c2=O)Cc2cc3c4c(ccc3nc2-1)O[C@@H]1OCCC[C@H]1C4`, the IC50 in the assay with HepG2 is 0.266 µM; with KB, 1.23 µM; in assay [1] it was 0.204 µM; in assay [2], 0.255 µM. Further, the “Ratio IC50” value with SGC-7901 was found to be 4.

On to `CC[C@@]1(O)C(=O)OCc2c1cc1n(c2=O)Cc2cc3c(CSC)c(O)ccc3nc2-1`, for which the IC50 in the assay on HepG2 was found to be 70.4 µM; with KB, 19.3 µM; in assay [1], 1.22 µM; in assay [2], 2.17 µM.

Regarding `CC[C@@]1(O)C(=O)OCc2c1cc1n(c2=O)Cc2cc3c(CSC(C)(C)C)c(O)ccc3nc2-1`, the IC50 with HepG2 was determined as 0.762 µM; in the assay with KB it was 1.41 µM; in assay [1], 1.43 µM; in assay [2], 3.14 µM.

With `CCOC1CCc2c(ccc3nc4c(cc23)Cn2c-4cc3c(c2=O)COC(=O)[C@]3(O)CC)O1` (some centres not stated), the IC50 with HepG2 is 0.265 µM; in the assay on KB it was 1.48 µM; in assay [1] it was 0.401 µM; in assay [2], 0.413 µM.

Turning to `CC[C@@]1(O)C(=O)OCc2c1cc1n(c2=O)Cc2cc3c(CSCCC(=O)O)c(O)ccc3nc2-1`, the IC50 is 89 µM in the assay with HepG2, above 100 µM with KB, 30.3 µM in assay [1] and 40.8 µM in assay [2]. Also, in assay [3], the inhibition result is “inactive”.
